{
  "source": "patent US6653351B2",
  "about": "“Adjuvant chemotherapy for anaplastic gliomas” (priority 2001, dated 2003)",
  "origin": "cited, not measured here",
  "details": "in vivo",
  "note": "Structures can show the parent of a compound that is named as a salt.",
  "data": [
    {"smiles": "O=NN(CCCl)C(=O)NC1CCCCC1", "note": "[Lomustine, 1-(2-chloroethyl)-3-cyclohexyl-1-nitrosourea]", "values": [
      {"measurement": "crossing of the blood brain barrier", "value": "crosses the blood brain barrier"}
    ]},
    {"smiles": "CC[C@]1(O)C[C@H]2CN(CCc3c([nH]c4ccccc34)[C@@](C(=O)OC)(c3cc4c(cc3OC)N(C=O)[C@H]3[C@@](O)(C(=O)OC)[C@H](OC(C)=O)[C@]5(CC)C=CCN6CC[C@]43[C@@H]65)C2)C1", "note": "[Vincristine, vincaleukoblastine, a 22-oxo-, sulfate (1:1) (salt)]", "values": [
      {"measurement": "crossing of the blood brain barrier", "value": "does not appear to cross the blood brain barrier"}
    ]}
  ]
}
